Assay results published in patent publication US6794491B1, “Polypeptides, their production and use” (Takeda Chemical Industries, Ltd., priority 1995, dated 2004).
Where no end group is shown, it is not given here.

Assays:
[1] = glucose-induced increase in plasma insulin concentration; format: in vivo, Male Wistar rats; conditions: bolus injection in the jugular vein with glucose 86 mg/rat
Procedure: Male Wistar rats (8-10w) were anesthetized by i.p. injection of pentobarbital (65 mg/kg). Glucose alone (86 mg/rat) or glucose and 19P2-L31 (675 pmol, 2.25 nmol, 6.75 nmol and 67.5 nmol/rat) were administered by bolus injection in the jugular vein. Blood samples were withdrawn from the contralateral vein. Plasma insulin concentration was determined with a radioimnunoassay kit (Amersham).

[2] = blood pressure after injection into the area postrema of medula oblongata; format: in vivo, male Wistar rats; conditions: 10 nmol into the area postrema of medula oblongata, conscious rats
Procedure: The inventors explored the influence of injection of 19P2-L31 into the area postrema of medula oblongata on blood pressure. Mature male Wistar rats (body weights at operation: ca 300 g) were anesthetized with pentobarbital 50 mg/kg i.p. and each animal was immobilized in a rat brain stereotaxic apparatus. The incisor bar was lowered by 3.3 mm from the interaural line. The skull was exposed, and using a dental drill a hole was made on the skull for implantation of a guide cannula. In addition, anchor screws were buried in two positions around the drilled hole. A stainless-steel guide cannula, AG-12 (0.4 mm inside dia., 0.5 mm out. dia., EICOM), was inserted in such a manner that its leading end would be situated in the upper part of the area postrema. […] With reference to the atlas of Paxinos and Watson (1986), the stereotaxic coordinates were AP: −6.0 mm (from interaural line), L: 0.0 mm, and H: +1.5 mm (from interaural line). […]
After waiting overnight postoperatively, the polyethylene tube was connected to a transducer (Spectramed) and the blood pressure was measured. After blood pressure readings became steady, the cap nut and dummy cannula were removed from the rat skull and, instead, a stainless steel microinjection cannula (0.17 mm in. dia., 0.35 mm out. dia., EICOM) connected to a Teflon tube (50 cm long, 0.1 mm in. dia., 0.4 mm out. dia., EICOM) was inserted. […]

[3] = plasma pituitary hormone level after administration into the third ventricle, pentobarbital anesthesia; format: in vivo, male Wistar rats
Procedure: The inventors explored the effect of 19P2-L31 administered into the third ventricle on pituitary hormone levels in the plasma. Mature male Wistar rats (body weights at operation: 290-350 g) were anesthetized with pentobarbital, 50 mg/kg i.p., and each immobilized in a rat brain stereotaxic apparatus. The incisor bar was set 3.3 mm lower from the interaural line. The skull was exposed, and using a dental drill a hole was made on the bone for implantation of a guide cannula. In addition, an anchor screw was buried in one position around the hole. A stainless-steel guide cannula, AG-12 (0.4 mm in. dia., 0.5 mm out. dia., EICOM), was inserted in such a manner that its tip would be situated in the upper part of the third ventricle. With reference to the atlas of Paxinos and Watson (1986), the stereotaxic coordinates were AP: +7.2 mm (from interaural line), L: 0.0 mm, and H: +2.0 mm (from interaural line). The guide cannula was secured to the skull using an instant adhesive, a dental cement, and an anchor piece. A stainless-steel dummy cannula, AD-12 (0.35 mm out. dia., EICOM), was then passed through the guide cannula and locked in position with a cap nut (EICOM). After the operation the rats were housed in individual cages and kept for at least 3 days for recuperation before starting the experiment.
The operated rat was anesthetized with pentobarbital 50 mg/kg i.p. and immobilized in dorsal position. After the bilateral jugular veins were exposed, 400 μl of blood was drawn using a 1 ml tuberculin syringe and a 24-G needle (both by Termo). To prevent clotting, the syringe was filled with 20 μl of saline containing 200 U/ml of heparin beforehand. The cap nut and dummy cannula were removed from the rat skull and, instead, a stainless steel microinjection cannula (0.17 mm in. dia., 0.35 mm out. dia., EICOM) connected to Teflon tube (50 cm long, 0.1 mm in. dia., 0.4 mm out. dia., EICOM) was inserted. The length of the microinjection cannula was adjusted beforehand so that its tip would be emergent from the guide cannula by 1 mm. One end of the Teflon tube was connected to a microsyringe pump and either PBS or 19P2-L31 dissolved in PBS was injected, in a total volume of 10 μl, into the third ventricle at a flow rate of 2.5 μl/min. After a standby time of 1 minute following infusion, the microinjection cannula was disconnected and the dummy cannula was reinstated and locked in position with a cap nut. Immediately before initiation of intraventricular administration and 10, 20, 30, 40, and 60 minutes after initiation of administration, 400 μl portions of blood were drawn from the jugular vein. Each blood sample was centrifuged (5,000 rpm, 10 min.) with a high-speed refrigerated microcentrifuge (MR-150, Tommy Seiko) and the supernatant (plasma) was recovered. The amounts of pituitary hormones [prolactin, luteinizing hormone (LH), adrenocorticotropic hormone (ACTH), thyroid-stimulating hormone (TSH), and growth hormone (GH)] in the plasma were respectively determined by radioimmunoassays.
The results were expressed as a mean±S.E.M. To test for significant difference between the group treated with 19P2-L31 dissolved in PBS and the control group treated with PBS alone, Student's t-test was used. According to the two-tailed test, p<0.05 was assumed to be the minimal level of significance.

[4] = 50 nmol into the third ventricle, anesthetized rats

Question: For “Ser-Arg-Ala-His-Gln-His-Ser-Met-Glu-Ile-Arg-Thr-Pro-Asp-Ile-Asn-Pro-Ala-Trp-Tyr-Ala-Gly-Arg-Gly-Ile-Arg-Pro-Val-Gly-Arg-Phe-NH2 (SRAHQHSMEIRTPDINPAWYAGRGIRPVGRF-NH2) [19P2-L31, synthetic ligand polypeptide]”, which “glucose-induced increase in plasma insulin concentration (first and second phase)” value (“glucose-induced increase” for short) ([1]; 675 pmol/rat) is on record?
Answer: partially inhibited

Question: What about the “glucose-induced increase” value ([1]; 2.25 nmol/rat) of the same substance?
Answer: partially inhibited

Question: And the “glucose-induced increase” value ([1]; 6.75 nmol/rat)?
Answer: partially inhibited

Question: And the “glucose-induced increase” value ([1]; 67.5 nmol/rat)?
Answer: completely inhibited

Question: What about the blood pressure [2] of the same substance?
Answer: caused an elevation of blood pressure

Question: And the “plasma ACTH” value [3, 4]?
Answer: none showed significant changes

Question: What about the “plasma LH” value [3, 4] of the same substance?
Answer: none showed significant changes

Question: And the “plasma TSH” value [3, 4]?
Answer: none showed significant changes

Question: And the plasma prolactin [3, 4]?
Answer: none showed significant changes

Question: And the “plasma GH level” value ([3]; 50 nmol into the third ventricle, anesthetized rats, 10, 30, and 40 minutes after administration, not statistically significant)?
Answer: Tendencies toward decrease

Question: And the “plasma GH level” value ([3]; 50 nmol into the third ventricle, anesthetized rats, 20 minutes after administration, versus control)?
Answer: significantly decreased

Question: What about the “plasma GH level” value ([3]; 50 nmol into the third ventricle, anesthetized rats, 60 minutes after administration) of the same substance?
Answer: no difference from the control group

Question: And the “plasma growth hormone level” value ([3]; injected into the third ventricle of rats, summary)?
Answer: depressed
